Data: patent US20150299188A1, “HETEROCYCLIC COMPOUND” (priority 2012, published 2015)

test system: FLAP (5-lipoxygenase activating protein); assay: In vitro binding test: displacement of [3H]-7-chloro-3-(5-((3-fluoropyridin-2-yl)methoxy)-2-methylphenyl)-3,4-dihydroquinazolin-2(1H)-one from Sf9 microsome fractions; design: species or system human and mouse; conditions: Sf9 microsome fractions expressing FLAP; 100% = radioligand binding with 10 μM sodium 3-(3-(tert-butylsulfanyl)-1-(4-chlorobenzyl)-5-isopropyl-1H-indol-2-yl)-2,2-dimethylpropanoate, 0% = DMSO; test compound concentration not given
Summary of the method: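 Sf9 microsomes expressing human or mouse FLAP (2 μg/mL) preincubated with compound 10 min at room temperature, then 120 nM tritiated quinazolinone ligand added for 60 min; buffer 100 mM Tris-HCl pH 7.5 with NaCl, EDTA, DTT, glycerol, Tween20. Bound ligand filtered and counted by scintillation; 10 μM indole propanoate defines 100% inhibition, DMSO 0%.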

| inhibitory rate (%) | SMILES |
| --- | --- |
| 85 | O=C1Nc2cc(CO)ccc2CN1c1cc(OCc2c(F)cccc2F)ccc1F [Example 234, 3-(5-((2,6-difluorobenzyl)oxy)-2-fluorophenyl)-7-(hydroxymethyl)-3,4-dihydroquinazolin-2(1H)-one] |
| 79 | Cc1ccc(OCc2c(F)cccc2F)cc1N1Cc2cnccc2NC1=O [Example 235, 3-(5-((2,6-difluorobenzyl)oxy)-2-methylphenyl)-3,4-dihydropyrido[4,3-d]pyrimidin-2(1H)-one] |
| 65 | Cc1ccc(OCc2c(F)cccc2F)cc1N1Cc2nn(C)cc2NC1=O [Example 236, 6-(5-((2,6-difluorobenzyl)oxy)-2-methylphenyl)-2-methyl-2,4,6,7-tetrahydro-5H-pyrazolo[4,3-d]pyrimidin-5-one] |
| 100 | COC(=O)c1ccc2c(c1)NC(=O)N(c1cc(OCc3nccs3)ccc1C)C2 [Example 237, methyl 3-(2-methyl-5-(1,3-thiazol-2-ylmethoxy)phenyl)-2-oxo-1,2,3,4-tetrahydroquinazoline-7-carboxylate] |
| 84 | CC(C)(O)c1ccc2c(c1)NC(=O)N(c1cc(OCc3c(F)cccc3F)ccc1C(F)(F)F)C2 [Example 238, 3-(5-((2,6-difluorobenzyl)oxy)-2-(trifluoromethyl)phenyl)-7-(2-hydroxypropan-2-yl)-3,4-dihydroquinazolin-2(1H)-one] |
| 86 | O=C1Nc2cc(CO)ccc2CN1c1cc(OCc2c(F)cccc2F)ccc1C(F)(F)F [Example 239, 3-(5-((2,6-difluorobenzyl)oxy)-2-(trifluoromethyl)phenyl)-7-(hydroxymethyl)-3,4-dihydroquinazolin-2(1H)-one] |
| 76 | Cc1ccc(OCc2c(F)cccc2F)cc1N1Cc2ccncc2NC1=O [Example 240, 3-(5-((2,6-difluorobenzyl)oxy)-2-methylphenyl)-3,4-dihydropyrido[3,4-d]pyrimidin-2(1H)-one] |
| 94 | COC(=O)c1ccc2c(c1)NC(=O)N(c1cc(OCc3ncc(C)s3)ccc1C)C2 [Example 241, methyl 3-(2-methyl-5-((5-methyl-1,3-thiazol-2-yl)methoxy)phenyl)-2-oxo-1,2,3,4-tetrahydroquinazoline-7-carboxylate] |
| 102 | Cc1ccc(OCc2ncccc2F)cc1N1Cc2c(Cl)cccc2NC1=O [Example 242, 5-chloro-3-(5-((3-fluoropyridin-2-yl)methoxy)-2-methylphenyl)-3,4-dihydroquinazolin-2(1H)-one] |
| 100 | Cc1ccc(OCc2ncccc2F)cc1N1Cc2cc(Cl)ccc2NC1=O [Example 243, 6-chloro-3-(5-((3-fluoropyridin-2-yl)methoxy)-2-methylphenyl)-3,4-dihydroquinazolin-2(1H)-one] |
| 113 | Cc1ccc(OCc2ncccc2F)cc1N1Cc2ccc(Cl)cc2NC1=O [Example 244, 7-chloro-3-(5-((3-fluoropyridin-2-yl)methoxy)-2-methylphenyl)-3,4-dihydroquinazolin-2(1H)-one] |
| 99 | CCCc1ccc(OCc2ncccc2F)cc1N1Cc2ccccc2NC1=O [Example 245, 3-(5-((3-fluoropyridin-2-yl)methoxy)-2-propylphenyl)-3,4-dihydroquinazolin-2(1H)-one] |
| 109 | COC(=O)c1ccc2c(c1)NC(=O)N(c1cc(OCc3nccc(Cl)c3F)ccc1C)C2 [Example 246, methyl 3-(5-((4-chloro-3-fluoropyridin-2-yl)methoxy)-2-methylphenyl)-2-oxo-1,2,3,4-tetrahydroquinazoline-7-carboxylate] |
| 99 | Cc1ccc(OCc2ncc(F)cc2F)cc1N1Cc2ccccc2NC1=O [Example 247, 3-(5-((3,5-difluoropyridin-2-yl)methoxy)-2-methylphenyl)-3,4-dihydroquinazolin-2(1H)-one] |
| 98 | CCOC(=O)CCCCc1ccc(OCc2ncccc2F)cc1N1Cc2ccccc2NC1=O [Example 248, ethyl 5-(4-((3-fluoropyridin-2-yl)methoxy)-2-(2-oxo-1,4-dihydroquinazolin-3(2H)-yl)phenyl)pentanoate] |
| 90 | COC(=O)c1ccc2c(c1)NC(=O)N(c1cc(OCc3nc(C)cs3)ccc1C)C2 [Example 249, methyl 3-(2-methyl-5-((4-methyl-1,3-thiazol-2-yl)methoxy)phenyl)-2-oxo-1,2,3,4-tetrahydroquinazoline-7-carboxylate] |
| 70 | Cc1ccc(OCc2ncccc2F)cc1N1Cc2nn(C)cc2NC1=O [Example 250, 6-(5-((3-fluoropyridin-2-yl)methoxy)-2-methylphenyl)-2-methyl-2,4,6,7-tetrahydro-5H-pyrazolo[4,3-d]pyrimidin-5-one] |

| inhibitory rate (%) | SMILES |
| --- | --- |
| 68 | O=C(O)CCCCc1ccc(OCc2ncccc2F)cc1N1Cc2ccccc2NC1=O [Example 251, 5-(4-((3-fluoropyridin-2-yl)methoxy)-2-(2-oxo-1,4-dihydroquinazolin-3(2H)-yl)phenyl)pentanoic acid] |
| 105 | Cc1ccc(S(=O)(=O)Oc2ccc3c(c2)NC(=O)N(c2cc(OCc4ncccc4F)ccc2C)C3)cc1 [Example 252, 3-(5-((3-fluoropyridin-2-yl)methoxy)-2-methylphenyl)-2-oxo-1,2,3,4-tetrahydroquinazolin-7-yl 4-methylbenzenesulfonate] |
| 93 | Cc1ccc(OCc2ncccc2F)cc1N1Cc2cccc(Cl)c2NC1=O [Example 253, 8-chloro-3-(5-((3-fluoropyridin-2-yl)methoxy)-2-methylphenyl)-3,4-dihydroquinazolin-2(1H)-one] |
| 98 | CC(C)(O)c1ccc2c(c1)NC(=O)N(c1cc(OCc3c(F)cccc3F)ccc1Cc1ccccc1)C2 [Example 254, 3-(2-benzyl-5-((2,6-difluorobenzyl)oxy)phenyl)-7-(2-hydroxypropan-2-yl)-3,4-dihydroquinazolin-2(1H)-one] |
| 81 | O=C1Nc2cc(CO)ccc2CN1c1cc(OCc2c(F)cccc2F)ccc1Cc1ccccc1 [Example 255, 3-(2-benzyl-5-((2,6-difluorobenzyl)oxy)phenyl)-7-(hydroxymethyl)-3,4-dihydroquinazolin-2(1H)-one] |
| 85 | Cc1ccc(OCc2ncccc2F)cc1N1Cc2cccnc2NC1=O [Example 256, 3-(5-((3-fluoropyridin-2-yl)methoxy)-2-methylphenyl)-3,4-dihydropyrido[2,3-d]pyrimidin-2(1H)-one] |
| 97 | O=C1Nc2cc(CO)ccc2CN1c1cc(OCc2c(F)cccc2F)ccc1CCc1ccccc1 [Example 257, 3-(5-((2,6-difluorobenzyl)oxy)-2-(2-phenylethyl)phenyl)-7-(hydroxymethyl)-3,4-dihydroquinazolin-2(1H)-one] |
| 116 | COc1ccc(CN2C(=O)N(c3cc(OCc4ncccc4F)ccc3Br)Cc3ccccc32)cc1 [Example 258, 3-(2-bromo-5-((3-fluoropyridin-2-yl)methoxy)phenyl)-1-(4-methoxybenzyl)-3,4-dihydroquinazolin-2(1H)-one] |
| 92 | Cc1ccc(OCc2ncccc2F)cc1N1Cc2ccncc2NC1=O [Example 259, 3-(5-((3-fluoropyridin-2-yl)methoxy)-2-methylphenyl)-3,4-dihydropyrido[3,4-d]pyrimidin-2(1H)-one] |
| 106 | CC(C)(O)c1ccc2c(c1)NC(=O)N(c1cc(OCc3c(F)cccc3F)ccc1CCc1ccccc1)C2 [Example 260, 3-(5-((2,6-difluorobenzyl)oxy)-2-(2-phenylethyl)phenyl)-7-(2-hydroxypropan-2-yl)-3,4-dihydroquinazolin-2(1H)-one] |
| 116 | Cc1ccc(OCc2ncccc2F)cc1N1Cc2ccc(C(=O)NC3CC3)cc2NC1=O [Example 261, N-cyclopropyl-3-(5-((3-fluoropyridin-2-yl)methoxy)-2-methylphenyl)-2-oxo-1,2,3,4-tetrahydroquinazoline-7-carboxamide] |
| 97 | Cc1ccc(OCc2ncccc2F)cc1N1Cc2nn(CC(F)(F)F)cc2NC1=O [Example 263, 6-(5-((3-fluoropyridin-2-yl)methoxy)-2-methylphenyl)-2-(2,2,2-trifluoroethyl)-2,4,6,7-tetrahydro-5H-pyrazolo[4,3-d]pyrimidin-5-one] |
| 101 | Cn1cc2c(n1)CN(c1cc(OCc3ncccc3F)ccc1Br)C(=O)N2 [Example 264, 6-(2-bromo-5-((3-fluoropyridin-2-yl)methoxy)phenyl)-2-methyl-2,4,6,7-tetrahydro-5H-pyrazolo[4,3-d]pyrimidin-5-one] |
| 82 | Cc1ccc(OCc2ncccc2Cl)cc1N1Cc2nn(C)cc2NC1=O [Example 265, 6-(5-((3-chloropyridin-2-yl)methoxy)-2-methylphenyl)-2-methyl-2,4,6,7-tetrahydro-5H-pyrazolo[4,3-d]pyrimidin-5-one] |
| 105 | CCCN(C)C(=O)c1ccc2c(c1)NC(=O)N(c1cc(OCc3ncccc3F)ccc1C)C2 [Example 266, 3-(5-((3-fluoropyridin-2-yl)methoxy)-2-methylphenyl)-N-methyl-2-oxo-N-propyl-1,2,3,4-tetrahydroquinazoline-7-carboxamide] |
| 100 | O=C1Nc2ccccc2CN1c1cc(OCc2ncccn2)ccc1Br [Example 267, 3-(2-bromo-5-(pyrimidin-2-ylmethoxy)phenyl)-3,4-dihydroquinazolin-2(1H)-one] |
| 83 | Cc1ccc(OCc2ncccc2F)cc1N1Cc2cnccc2NC1=O [Example 268, 3-(5-((3-fluoropyridin-2-yl)methoxy)-2-methylphenyl)-3,4-dihydropyrido[4,3-d]pyrimidin-2(1H)-one] |
